Measured values from PubChem BioAssay AID1259411 (Chemical Carcinogenesis Research Information System (CCRIS), 2018).
Calls of active or inactive are those of the source. The rule behind the calls is not given here.

System: rodent carcinogenicity bioassays, tumor incidence
Assay: CCRIS carcinogenicity studies
In short: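 NCI-built, expert-reviewed records of carcinogenicity and related test outcomes (mutagenicity, tumor promotion/inhibition) compiled from published and report sources, historical span 1985-2011, not updated.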

Structure (SMILES): O=P1(N(CCCl)CCCl)NCCCO1 (stereo not drawn)
- carcinogen call (Species: FISH, Strain/Sex: SHASTA RAINBOW TROUT/MALE, FEMALE, Route: ORAL, Dose: 0, 200 PPM IN DIET FOR 18 MO (STUDY DURATION: 18 MO)): inactive; negative
- carcinogen call (Species: HUMAN, Route: ORAL, Tumor Site: Type of Lesion: URINARY BLADDER): active; positive
- carcinogen call (Species: MOUSE, Strain/Sex: NMRI/FEMALE, Route: SUBCUTANEOUS, Dose: 0, 13, 26 MG/KG IN SALINE 1/WK FOR LIFETIME (STUDY DURATION: LIFETIME), Dose: 0, 13, 26 MG/KG IN SALINE 1/WK FOR LIFETIME (STUDY DURATION: LIFETIME), Tumor Site: Type of Lesion: LYMPHATIC SYSTEM: MALIGNANT LEUKEMIA): active; positive
- carcinogen call (Species: MOUSE, Strain/Sex: NMRI/FEMALE, Route: SUBCUTANEOUS, Dose: 26 MG/KG 1/WK FOR 52 WK, Tumor Site: Type of Lesion: MAMMARY GLAND: CARCINOMA, MULTIPLE SITES: CARCINOMA, SARCOMA): active; positive
- carcinogen call (Species: RAT, Strain/Sex: BR46/MALE, Route: INTRAVENOUS, Dose: 15 MG/KG 1/WK OR 5 DOSES OF 33 MG/KG EVERY 2 WK, Tumor Site: Type of Lesion: MULTIPLE SITES): active; positive
- carcinogen call (Species: RAT, Strain/Sex: SPRAGUE-DAWLEY/MALE,FEMALE, Route: ORAL, Dose: 0.31, 0.63, 1.25, 2.5 MG/KG 5/WK, Dose: 0.31, 0.63, 1.25, 2.5 MG/KG 5/WK, Tumor Site: Type of Lesion: URINARY BLADDER: PAPILLOMA, TRANSITIONAL CELL CARCINOMA): active; positive
- carcinogen call (Species: RAT, Strain/Sex: SPRAGUE-DAWLEY/MALE, Route: INTRAVENOUS, Dose: 13 MG/KG 1/WK, Tumor Site: Type of Lesion: MULTIPLE SITES): active; positive

Structure (SMILES): CN(C)N=Nc1ccccc1
- carcinogen call (Species: RAT, Strain/Sex: SPRAGUE-DAWLEY/FEMALE, Route: INTRAPERITONEAL, TRANSPLACENTAL, Dose: 0, 1 MG/KG ADMINISTERED TO PREGNANT RATS ON DAY 16, 18 AND 20 OF GESTATION (STUDY DURATION: 1 YR), Tumor Site: Type of Lesion: KIDNEY: RENAL MESENCHYMAL TUMOR): active; positive
- carcinogen call (Species: RAT, Strain/Sex: SPRAGUE-DAWLEY/FEMALE, Route: INTRAPERITONEAL, TRANSPLACENTAL, Dose: 0, 10, 30, 60 MG/KG ADMINISTERED TO PREGNANT RATS ON DAY 20 OF GESTATION (STUDY DURATION: 1 YR), Dose: 0, 10, 30, 60 MG/KG ADMINISTERED TO PREGNANT RATS ON DAY 20 OF GESTATION (STUDY DURATION: 1 YR)): inactive; negative
- carcinogen call (Species: RAT, Strain/Sex: SPRAGUE-DAWLEY/MALE,FEMALE, Route: SUBCUTANEOUS, Dose: 50 MG/KG 1/WK FOR LIFE, Tumor Site: Type of Lesion: BRAIN, NERVOUS SYSTEM (CENTRAL)): active; positive
- carcinogen call (Species: RAT, Strain/Sex: SPRAGUE-DAWLEY/MALE, Route: INTRAPERITONEAL, TRANSPLACENTAL, Dose: 0, 1 MG/KG ADMINISTERED TO PREGNANT RATS ON DAY 16, 18 AND 20 OF GESTATION (STUDY DURATION: 1 YR), Tumor Site: Type of Lesion: BRAIN: TUMOR, DENTITIOUS TISSUE: ODONTOMA): active; positive
- carcinogen call (Species: RAT, Strain/Sex: SPRAGUE-DAWLEY/MALE, Route: INTRAPERITONEAL, TRANSPLACENTAL, Dose: 0, 10, 30, 60 MG/KG ADMINISTERED TO PREGNANT RATS ON DAY 20 OF GESTATION (STUDY DURATION: 1 YR), Dose: 0, 10, 30, 60 MG/KG ADMINISTERED TO PREGNANT RATS ON DAY 20 OF GESTATION (STUDY DURATION: 1 YR)): inactive; negative
- carcinogen call (Species: RAT, Strain/Sex: STRAIN-BD, Route: ORAL, SUBCUTANEOUS, Dose: 24.8, 43.4 MG/KG 1/WK (MEAN TOTAL DOSE 1.5 G/KG), Tumor Site: Type of Lesion: BRAIN, NERVOUS SYSTEM): active; positive

Structure (SMILES): O=[N+]([O-])c1ccc(N=Nc2c(O)ccc3ccccc23)c(Cl)c1
- carcinogen call (Species: MOUSE, Strain/Sex: ICR/FEMALE, Route: DERMAL, Dose: 0, 1 MG IN 0.1 ML DISTILLED WATER 2/WK FOR A MEAN TOTAL DOSE OF 117.1 MG (STUDY DURATION: 18 MO)): inactive; negative
- carcinogen call (Species: MOUSE, Strain/Sex: ICR/MALE, Route: DERMAL, Dose: 0, 1 MG IN 0.1 ML DISTILLED WATER 2/WK FOR A MEAN TOTAL DOSE OF 117.1 MG (STUDY DURATION: 18 MO)): inactive; negative

Structure (SMILES): C[C@]12CC[C@H]3C(=CCc4cc(OS(=O)(=O)O)ccc43)[C@@H]1CCC2=O
- carcinogen call (Species: HAMSTER, Strain/Sex: SYRIAN/MALE, Route: SUBCUTANEOUS IMPLANT, Dose: 0, 20 MG IN PELLETS IMPLANTED EVERY 2.5 MO FOR 9 MO (STUDY DURATION: 9 MO), Tumor Site: Type of Lesion: KIDNEY: TUMOR): active; positive

Structure (SMILES): O=[N+]([O-])c1ccc2ccc3cc4ccccc4c4ccc1c2c34
- carcinogen call (Species: MOUSE, Strain/Sex: B6C3F1/MALE, Route: INTRAPERITONEAL, Dose: 0, 400 NMOL IN 35 µL DMSO ON DAYS 1 (1/7 TOTAL DOSE), 8 (2/7 TOTAL DOSE), AND 15 (4/7 TOTAL DOSE) AFTER BIRTH (STUDY DUR): inactive; negative
- carcinogen call (Species: RAT, Strain/Sex: F344/MALE, Route: SUBCUTANEOUS, Dose: 0, 500, 1000 UG SUSPENDED IN BEESWAX/TRICAPRYLIN (1:1) ONCE (STUDY DURATION: LIFETIME), Dose: 0, 500, 1000 UG SUSPENDED IN BEESWAX/TRICAPRYLIN (1:1) ONCE (STUDY DURATION: LIFETIME)): inactive; negative

Structure (SMILES): CCc1cc(Cc2cc(CC)cc(C(C)(C)C)c2O)c(O)c(C(C)(C)C)c1
- carcinogen call (Species: RAT, Strain/Sex: WISTAR/MALE, Route: ORAL, Dose: 0, 0.03, 0.1, 0.3% IN DIET FOR DURATION OF STUDY (STUDY DURATION: 18 MO), Dose: 0, 0.03, 0.1, 0.3% IN DIET FOR DURATION OF STUDY (STUDY DURATION: 18 MO)): inactive; negative

Structure (SMILES): CC1CS(=O)(=O)CCN1/N=C/c1ccc([N+](=O)[O-])o1 (stereo not drawn)
- carcinogen call (Species: MOUSE, Strain/Sex: SWISS/FEMALE, Route: INTRAPERITONEAL, Dose: 0, 8 UG/G BW 1/D FOR 30 DAYS (STUDY DURATION: LIFETIME), Tumor Site: Type of Lesion: LYMPHATIC SYSTEM: LYMPHOMA): active; positive
- carcinogen call (Species: MOUSE, Strain/Sex: SWISS/FEMALE, Route: INTRAPERITONEAL, Dose: 0, 8 UG/G BW 1/D FOR 60 DAYS (STUDY DURATION: LIFETIME), Tumor Site: Type of Lesion: LYMPHATIC SYSTEM: LYMPHOMA): active; positive

Structure (SMILES): Clc1nc(Cl)nc(Nc2ccccc2Cl)n1
- carcinogen call (Species: MOUSE, Strain/Sex: B6C3F1/FEMALE, Route: ORAL, Dose: 0, 500, 1000 PPM IN DIET, Dose: 0, 500, 1000 PPM IN DIET): inactive; negative
- carcinogen call (Species: MOUSE, Strain/Sex: B6C3F1/MALE, Route: ORAL, Dose: 0, 500, 1000 PPM IN DIET, Dose: 0, 500, 1000 PPM IN DIET): inactive; negative
- carcinogen call (Species: Mouse, Strain/Sex: CD-1/Female, Route: Oral, Dose: 0, 50, 250, 1250 ppm in feed for 2 yrs, Dose: 0, 50, 250, 1250 ppm in feed for 2 yrs): inactive; negative; purity 93.5%
- carcinogen call (Species: Mouse, Strain/Sex: CD-1/Male, Route: Oral, Dose: 0, 50, 250, 1250 ppm in feed for 2 yrs, Dose: 0, 50, 250, 1250 ppm in feed for 2 yrs): inactive; negative; purity 93.5%
- carcinogen call (Species: RAT, Strain/Sex: F344/FEMALE, Route: ORAL, Dose: 0, 500, 1000 PPM IN DIET, Dose: 0, 500, 1000 PPM IN DIET): inactive; negative
- carcinogen call (Species: RAT, Strain/Sex: F344/MALE, Route: ORAL, Dose: 0, 500, 1000 PPM IN DIET, Dose: 0, 500, 1000 PPM IN DIET): inactive; negative
- carcinogen call (Species: Rat, Strain/Sex: Sprague Dawley/Female, Route: Oral, Dose: 0, 50, 330, 2000 ppm in feed for 104 wks, Dose: 0, 50, 330, 2000 ppm in feed for 104 wks): inactive; negative; purity 93.5%
- carcinogen call (Species: Rat, Strain/Sex: Sprague Dawley/Male, Route: Oral, Dose: 0, 50, 330, 2000 ppm in feed for 104 wks, Dose: 0, 50, 330, 2000 ppm in feed for 104 wks): inactive; negative; purity 93.5%

Structure (SMILES): COC(=O)c1ccc(CNS(C)(=O)=O)cc1S(=O)(=O)NC(=O)Nc1nc(OC)cc(OC)n1
- carcinogen call (Species: Mouse, Strain/Sex: CD-1/Female (60/Group), Route: Oral, Dose: 0, 13.9, 129.8, 1356 mg/kg/day of 94.6-95.3% mesosulfuron-methyl in diet for 18 mo, study duration 18 mo, Dose: 0, 13.9, 129.8, 1356 mg/kg/day of 94.6-95.3% mesosulfuron-methyl in diet for 18 mo, study duration 18 mo): inactive; negative
- carcinogen call (Species: Mouse, Strain/Sex: CD-1/Male (60/Group), Route: Oral, Dose: 0, 10.6, 102.8, 1069 mg/kg/day of 94.6-95.3% mesosulfuron-methyl in diet for 18 mo, study duration 18 mo, Dose: 0, 10.6, 102.8, 1069 mg/kg/day of 94.6-95.3% mesosulfuron-methyl in diet for 18 mo, study duration 18 mo): inactive; negative
- carcinogen call (Species: Rat, Strain/Sex: Hoe:WISK(SPF71)/Female (50/Group), Route: Oral, Dose: 0, 9.39, 94.7, 952.3 mg/kg/day of 94.6% mesosulfuron-methyl in diet for 24 mo, study duration 24 mo, Dose: 0, 9.39, 94.7, 952.3 mg/kg/day of 94.6% mesosulfuron-methyl in diet for 24 mo, study duration 24 mo): inactive; negative
- carcinogen call (Species: Rat, Strain/Sex: Hoe:WISK(SPF71)/Male (50/Group), Route: Oral, Dose: 0, 7.46, 73.8, 764.0 mg/kg/day of 94.6% mesosulfuron-methyl in diet for 24 mo, study duration 24 mo, Dose: 0, 7.46, 73.8, 764.0 mg/kg/day of 94.6% mesosulfuron-methyl in diet for 24 mo, study duration 24 mo): inactive; negative
